# Literature values, collected in patent US10143669B2, “Use of short chain fatty acids in cancer prevention” (Temple University-Of The Commonwealth System of Higher …, priority 2015, dated 2018).
# Key:
# [1] = system: Hepatocellular carcinoma (HCC); settings: Peck-Radosavljevic M, Liver Cancer, 2014
# HBx transgenic mice = settings: Arzumanyan A et al., Cancer Res, 2012
# established tumor = settings: Bindels L B et al., Br J Cancer, 2012
smiles,measurement,setting,value
CNC(=O)c1cc(Oc2ccc(NC(=O)Nc3ccc(Cl)c(C(F)(F)F)c3)cc2)ccn1 [sorafenib],"life expectancy extended, average",[1],3 months
CS(=O)(=O)c1ccc(C(=O)Nc2ccc(Cl)c(-c3ccccn3)c2)c(Cl)c1 [GDC-0449],number and size of tumors in HBx transgenic mice,HBx transgenic mice,decreased the number and size of tumors
CCC(=O)O [proprionate],growth of an established tumor,established tumor,reduce the growth
